Laboratory results taken from ChEMBL document CHEMBL5325482, “Discovery of [11C]MK-8056: A Selective PET Imaging Agent for the Study of mGluR2 Negative Allosteric Modulators” (ACS Med Chem Lett, 2023).

Tests used:
physchem = conditions: PBS, pH 7
P-gp [1] = assay: in vitro; conditions: pig, LLC-PK1
P-gp [2] = assay: in vitro; conditions: pig, LLC-PK1; remark: listed apart in the source

Structure (SMILES) | logD (physchem) | Papp (P-gp [1]) | Papp (P-gp [2])
NC(=O)c1cc(-c2ccc(F)cc2)c2ccc(CN3C(=O)CCC3=O)cc2n1 | 2.24 | – | –
NC(=O)c1cc(-c2ccc(F)cc2)c2ccc(CCc3cncnc3)cc2n1 | 2.31 | 30 ×10⁻⁶ cm/s | 28 ×10⁻⁶ cm/s
NC(=O)c1cc(-c2ccc(F)cc2)c2ccc(CCc3cccnc3)cc2n1 | 2.85 | 21 ×10⁻⁶ cm/s | 22 ×10⁻⁶ cm/s
NC(=O)c1cc(-c2ccc(F)cc2)c2ccc(CCc3ccncc3)cc2n1 | 2.88 | 21 ×10⁻⁶ cm/s | 24 ×10⁻⁶ cm/s
NC(=O)c1cc(-c2ccc(F)cc2)c2ccc(Cc3ccncc3)cc2n1 | 2.7 | – | –
